SMILES strings stand for the structures.

The target of this assay is T1, Syk kinase (Homo sapiens, UniProt P43405).
T1 construct: purchased
The experiment in a line: Syk kinase inhibition, Caliper LabChip off-chip mobility-shift kinase assay. It is filed as biochemical. Particulars: Caliper LabChip assay; read-out: Syk Enzyme IC50. The method in brief: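 Purified Syk pre-incubated 15 min with compound in 100 mM HEPES pH 7.5, 1 mM DTT, 10 mM MgCl2 or MnCl2, 0.002% Brij-35, then 1.5 μM fluorescein peptide and ATP at apparent KM added; 1–1.5 h at room temperature, 4% DMSO, EDTA stop. Microfluidic mobility-shift product/substrate conversion gave % inhibition; IC50 from 12-point series (10–0.00003 μM) by 4-parameter fit.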
As for `CC(C)(C)Nc1nc(-c2cnc(N)nc2)cc2ccn(CC(O)CO)c(=O)c12` (stereo not shown) [compound 929], the 50% inhibitory concentration (IC50) was 8 nM.
In the case of `CC1(Nc2nc(-c3cnc(N)nc3)cc3ccn(CC4CCOCC4)c(=O)c23)CCC1` [compound 930], the IC50 stood at 81 nM.
The figure for `CC1(Nc2nc(-c3cnc(N)nc3)cc3ccn(C4COC4)c(=O)c23)CCC1` [compound 931] is 15 nM.
As to `CC1(Cn2ccc3cc(-c4cnc(N)nc4)nc(NC4(C)CCC4)c3c2=O)COC1` [compound 932], the IC50 was 57 nM.
The figure for `CC1(Nc2nc(-c3cnc(N)nc3)cc3ccn(CC4(CO)COC4)c(=O)c23)CCC1` [compound 933] is 25 nM.
Take `CC(C)(C)Nc1nc(-c2cnc(N)nc2)cc2ccn(C[C@H](O)CO)c(=O)c12` [compound 934]: the IC50 turned out to be 9 nM.
The value for `CC(C)(C)Nc1nc(-c2cnc(N)nc2)cc2ccn(C[C@H](O)CO)c(=O)c12` [compound 935] was 8 nM.
For `COCC(COC)n1ccc2cc(-c3cnc(N)nc3)nc(NC(C)(C)C)c2c1=O` [compound 936], the IC50 turned out to be 15 nM.
With `COCC(COC)n1ccc2cc(Nc3cnccn3)nc(NC(C)(C)C)c2c1=O` [compound 937], the IC50 was 12 nM.
As for `CCn1ccc2cc(Nc3cnccn3)nc(N[C@H]3CCC[C@H]3O)c2c1=O` [compound 938], the IC50 was 24 nM.
On to `CCn1ccc2cc(Nc3cc(C)ccn3)nc(N[C@@H]3CCC[C@H]3O)c2c1=O` [compound 939], for which the IC50 worked out at 1050 nM.
The value for `CCn1ccc2cc(Nc3cnccn3)nc(N[C@@H]3CCC[C@H]3O)c2c1=O` [compound 940] was 483 nM.
Turning to `CCn1ccc2cc(Nc3cc(C)ccn3)nc(N[C@@H]3CCC[C@@H]3CO)c2c1=O` [compound 941], the IC50 worked out at 226 nM.
`CCn1ccc2cc(Nc3cnccn3)nc(N[C@@H]3CCC[C@@H]3CO)c2c1=O` [compound 942]: the IC50 worked out at 87 nM.
The figure for `Cc1ccnc(Nc2cc3ccn(C(C)C)c(=O)c3c(N[C@H]3CC[C@@H](O)CC3)n2)c1` [compound 943] is 39 nM.
In the case of `CC(C)n1ccc2cc(Nc3cnccn3)nc(N[C@H]3CC[C@@H](O)CC3)c2c1=O` [compound 944], the IC50 came out at 32 nM.
The value for `CCn1ccc2cc(Nc3cc(C)ccn3)nc(N[C@H]3CC[C@H](O)C3)c2c1=O` [compound 945] was 23 nM; that for `CCn1ccc2cc(Nc3cnccn3)nc(N[C@H]3CC[C@H](O)C3)c2c1=O` [compound 946] was 17 nM.
In the case of `Cc1ccnc(Nc2cc3ccn(CCCO)c(=O)c3c(N[C@H]3CC[C@@H](O)CC3)n2)c1` [compound 947], the IC50 was 19 nM.
For the compound `O=c1c2c(N[C@H]3CC[C@@H](O)CC3)nc(Nc3cnccn3)cc2ccn1CCCO` [compound 948], the IC50 turned out to be 18 nM.
Regarding `CCn1ccc2cc(Nc3cnccn3)nc(N[C@H]3CC[C@H](O)CC3)c2c1=O` [compound 949], the half-maximal inhibitory concentration (IC50) worked out at 50 nM.
Turning to `CCn1ccc2cc(Nc3cc(C)ccn3)nc(NC3CCC(C)(O)CC3)c2c1=O` (stereo not shown) [compound 950], the IC50 came to 53 nM.
Consider `CCn1ccc2cc(Nc3cc(C)ccn3)nc(NC3CCC(C)(O)CC3)c2c1=O` (stereo not shown) [compound 951], for which the IC50 was 92 nM.
Consider `CCn1ccc2cc(Nc3cnccn3)nc(NC3CCC(C)(O)CC3)c2c1=O` (stereo not shown) [compound 952], for which the IC50 is 51 nM.
As to `CCn1ccc2cc(Nc3cc(C)ccn3)nc(NC3CC=C(C)CC3)c2c1=O` (stereo not shown) [compound 954], the IC50 stood at 754 nM.
The figure for `CCn1ccc2cc(Nc3cnccn3)nc(NC3CC=C(C)CC3)c2c1=O` (stereo not shown) [compound 955] is 376 nM.
With `CCn1ccc2cc(Nc3nccc(O)n3)nc(N[C@H]3CCC[C@@H]3O)c2c1=O` [compound 956], the IC50 turned out to be 66 nM.
As to `CCn1ccc2cc(Nc3nccc(O)n3)nc(N[C@H]3CCC[C@H]3O)c2c1=O` [compound 957], the IC50 is 15 nM.
In the case of `CCn1ccc2cc(Nc3nccc(O)n3)nc(N[C@@H]3CC[C@H](O)C3)c2c1=O` [compound 958], the IC50 was found to be 22 nM.
Regarding `CCn1ccc2cc(Nc3nccc(O)n3)nc(NC[C@@H]3CC[C@@H](O)C3)c2c1=O` [compound 959], the IC50 was 41 nM.
As for `CCn1ccc2cc(Nc3nccc(O)n3)nc(N[C@@H]3CC[C@@H](O)C3)c2c1=O` [compound 960], the IC50 turned out to be 61 nM.
Consider `CCn1ccc2cc(Nc3nccc(O)n3)nc(N[C@H]3CC[C@@H](O)C3)c2c1=O` [compound 961], for which the IC50 was found to be 23 nM.
As for `CCn1ccc2cc(Nc3cc(C)ccn3)nc(N[C@H](C)CO)c2c1=O` [compound 962], the IC50 was 92 nM.
With `CCn1ccc2cc(Nc3cnccn3)nc(N[C@H](C)CO)c2c1=O` [compound 963], the IC50 was 147 nM.
The value for `Cc1ccnc(Nc2cc3ccn(C(C)C)c(=O)c3c(N[C@H]3CC[C@H](O)CC3)n2)c1` [compound 964] was 51 nM.
Regarding `CC(C)n1ccc2cc(Nc3cnccn3)nc(N[C@H]3CC[C@H](O)CC3)c2c1=O` [compound 965], the IC50 was found to be 61 nM.
For `Cc1ccnc(Nc2cc3ccn(C(C)C)c(=O)c3c(N[C@@H](C)CO)n2)c1` [compound 966], the IC50 was determined as 29 nM.
Turning to `CC(C)n1ccc2cc(Nc3cnccn3)nc(N[C@@H](C)CO)c2c1=O` [compound 967], the IC50 amounted to 17 nM.
The value for `CCn1ccc2cc(Nc3cnccn3)nc(NC3CCC(=O)CC3)c2c1=O` [compound 969] was 81 nM.
For `CCn1ccc2cc(Nc3cc(C)ccn3)nc(NC3CCS(=O)(=O)C3)c2c1=O` (stereo not shown) [compound 970], the IC50 was 75 nM.
Consider `CCn1ccc2cc(Nc3cnccn3)nc(NC3CCS(=O)(=O)C3)c2c1=O` (stereo not shown) [compound 971], for which the IC50 stood at 145 nM.
For `CCn1ccc2cc(Nc3cc(C)ccn3)nc(NC3CCCC(O)C3)c2c1=O` (stereo not shown) [compound 972], the IC50 turned out to be 59 nM.
The figure for `CCn1ccc2cc(Nc3cnccn3)nc(NC3CCCC(O)C3)c2c1=O` (stereo not shown) [compound 973] is 26 nM.
For the compound `Cc1ccnc(Nc2cc3ccn(CCO)c(=O)c3c(NC3CCS(=O)(=O)C3)n2)c1` (stereo not shown) [compound 974], the IC50 came to 203 nM.
Take `O=c1c2c(NC3CCS(=O)(=O)C3)nc(Nc3cnccn3)cc2ccn1CCO` (stereo not shown) [compound 975]: the IC50 was found to be 370 nM.
With `O=c1[nH]ccc2cc(Nc3cnccn3)nc(N[C@H]3CC[C@H](O)CC3)c12` [compound 976], the IC50 was 5 nM.
Take `Cc1ccnc(Nc2cc3ccn(C(C)C)c(=O)c3c(N[C@H]3CC[C@@H](O)C3)n2)c1` [compound 977]: the IC50 stood at 20 nM.
As for `CC(C)n1ccc2cc(Nc3cnccn3)nc(N[C@H]3CC[C@@H](O)C3)c2c1=O` [compound 978], the IC50 worked out at 16 nM.
On to `CC(C)n1ccc2cc(Nc3cnccn3)nc(N[C@H]3CCC[C@H]3O)c2c1=O` [compound 980], for which the half-maximal inhibitory concentration (IC50) came out at 36 nM.
In the case of `O=c1[nH]ccc2cc(Nc3cnccn3)nc(N[C@H]3CC[C@@H](O)CC3)c12` [compound 981], the IC50 stood at 15 nM.
For the compound `CS(=O)(=O)CCn1ccc2cc(Nc3cnccn3)nc(N[C@H]3CC[C@H](O)CC3)c2c1=O` [compound 982], the IC50 turned out to be 22 nM.
Turning to `[2H]C([2H])([2H])n1ccc2cc(Nc3cc(C)ccn3)nc(N[C@H]3CC[C@H](O)CC3)c2c1=O` [compound 983], the IC50 was determined as 51 nM.
Turning to `[2H]C([2H])([2H])n1ccc2cc(Nc3cnccn3)nc(N[C@H]3CC[C@H](O)CC3)c2c1=O` [compound 984], the concentration for half-maximal inhibition (IC50) was 29 nM.
For the compound `[2H]C([2H])([2H])n1ccc2cc(Nc3cc(C)ccn3)nc(N[C@H]3CC[C@@H](CO)C3)c2c1=O` [compound 985], the concentration for half-maximal inhibition (IC50) amounted to 41 nM.
Turning to `[2H]C([2H])([2H])n1ccc2cc(Nc3cnccn3)nc(N[C@H]3CC[C@@H](CO)C3)c2c1=O` [compound 986], the IC50 was 9 nM.
With `Cc1ccnc(Nc2cc3ccn(C(C)C)c(=O)c3c(N[C@H]3CC[C@@H](CO)C3)n2)c1` [compound 987], the IC50 turned out to be 60 nM.
Consider `CC(C)n1ccc2cc(Nc3cnccn3)nc(N[C@H]3CC[C@@H](CO)C3)c2c1=O` [compound 988], for which the IC50 amounted to 3 nM.
`O=c1c2c(N[C@H]3CC[C@H](O)CC3)nc(Nc3cnccn3)cc2ccn1CCO` [compound 989]: the IC50 was found to be 15 nM.
As to `[2H][C@]1(O)CC[C@H](Nc2nc(Nc3cc(C)ccn3)cc3ccn(CC)c(=O)c23)CC1` [compound 990], the IC50 amounted to 20 nM.
For `[2H][C@]1(O)CC[C@H](Nc2nc(Nc3cnccn3)cc3ccn(CC)c(=O)c23)CC1` [compound 991], the IC50 amounted to 29 nM.
Regarding `[2H][C@]1(O)CC[C@@H](Nc2nc(Nc3cnccn3)cc3ccn(CC)c(=O)c23)CC1` [compound 992], the concentration for half-maximal inhibition (IC50) came to 12 nM.
Consider `Cc1ccnc(Nc2cc3ccn(CCN4CCOCC4)c(=O)c3c(N[C@H]3CC[C@@H](O)CC3)n2)c1` [compound 993], for which the IC50 amounted to 67 nM.
For `O=c1c2c(N[C@H]3CC[C@@H](O)CC3)nc(Nc3cnccn3)cc2ccn1CCN1CCOCC1` [compound 994], the IC50 came out at 108 nM.
The value for `Cc1ccnc(Nc2cc3ccn(CCN4CCOCC4)c(=O)c3c(N[C@@H](C)CO)n2)c1` [compound 995] was 53 nM; that for `C[C@@H](CO)Nc1nc(Nc2cnccn2)cc2ccn(CCN3CCOCC3)c(=O)c12` [compound 996] was 158 nM.
With `Cc1ccnc(Nc2cc3ccn(CCN4CCOCC4)c(=O)c3c(NC(C)(C)C)n2)c1` [compound 997], the IC50 came out at 296 nM.
In the case of `CC(C)(C)Nc1nc(Nc2cnccn2)cc2ccn(CCN3CCOCC3)c(=O)c12` [compound 998], the IC50 was 205 nM.
Consider `O=c1c2c(N[C@H]3CC[C@@H](O)CC3)nc(Nc3cnccn3)cc2ccn1CCF` [compound 999], for which the IC50 amounted to 10 nM.
With `C[C@@H](CO)Nc1nc(Nc2cnccn2)cc2ccn(CCF)c(=O)c12` [compound 1000], the IC50 stood at 74 nM.
As to `CC(C)(C)Nc1nc(Nc2cnccn2)cc2ccn(CCF)c(=O)c12` [compound 1001], the IC50 turned out to be 49 nM.

The IC50 is the concentration needed to halve the response being measured.

Source of the values: patent US20110053897A1 (IRM LLC, priority 2009, published 2011).
